# Measured values as given in patent US8415469B2, “Compounds and methods for kinase modulation, and indications therefor” (Plexxikon Inc., priority 2005, dated 2013).
# Tests used:
# Format in all cases: biochemical
# Btk = molecular target: T1, Btk (Homo sapiens, UniProt Q06187); assay: Z'-Lyte FRET kinase assay (Invitrogen), Btk; details: read-out: IC50, activity toward kinase Btk
# T1 construct: purchased Invitrogen (assay run by Invitrogen)
# Ret = molecular target: T2, Ret (Homo sapiens, UniProt P07949); assay: AlphaScreen kinase assay, Ret; details: read-out: IC50, activity toward kinase Ret
# T2 construct: P1378.pET-SF BI-PTP RET H661-R1012 HIS; made in house
# T2 sequence (P07949 with tags, fused parts or gaps): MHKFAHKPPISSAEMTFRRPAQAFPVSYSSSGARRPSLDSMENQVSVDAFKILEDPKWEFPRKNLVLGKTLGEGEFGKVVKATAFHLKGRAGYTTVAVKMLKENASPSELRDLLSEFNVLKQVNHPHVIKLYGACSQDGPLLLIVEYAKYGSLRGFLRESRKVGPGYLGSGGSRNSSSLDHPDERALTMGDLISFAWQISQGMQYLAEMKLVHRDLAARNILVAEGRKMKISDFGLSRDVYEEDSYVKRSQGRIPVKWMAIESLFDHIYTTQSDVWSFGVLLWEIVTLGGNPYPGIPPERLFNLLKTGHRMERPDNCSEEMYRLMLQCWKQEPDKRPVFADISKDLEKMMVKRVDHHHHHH
# Plk1 = Plk1 (Homo sapiens, UniProt P53350); assay: AlphaScreen kinase assay, Plk1; details: read-out: IC50, activity toward kinase Plk1
# From the text: AlphaScreen assay was used to screen additional kinases. The assay is similarly dependent on the phosphorylation of a peptide substrate. In this assay, an antibody that recognizes phosphorylated substrate is bound to an acceptor bead. The peptide substrate is attached to biotin, which binds to a donor head that contains streptavidin. Thus phosphorylated substrate is bound by antibody and streptavidin, bringing the donor and acceptor heads into close proximity when kinase is not inhibited. The donor produces singlet oxygen which results in emission from the acceptor when they are in close proximity. Conversely, when kinase is inhibited, the donor and acceptor beads are not associated and the emission from the acceptor is reduced.
# AlphaScreen assays were done using compounds dissolved in DMSO to a concentration of 20 mM. The compounds were diluted accordingly to the desired final concentrations in each sample well, using 1:3 serial dilution for a total of 8 concentration points.
# Kdr = molecular target: T3, Kdr (Homo sapiens, UniProt P35968); assay: Z'-Lyte FRET kinase assay (Invitrogen), Kdr; details: read-out: IC50, activity toward kinase Kdr
# T3 construct: purchased Invitrogen (assay run by Invitrogen)
# B-Raf V600E = molecular target: T4, B-Raf V600E (Homo sapiens, UniProt P15056, V600E); assay: AlphaScreen kinase assay, B-Raf V600E; details: read-out: IC50, activity toward kinase B-Raf V600E
# T4 construct: P4254. pFastBacBD-CDC37 BRAF D437-K722-X, V600E; His6 with pFastBac HT leader (TEV site) (N); made in house; host or cells: Sf9 (baculovirus; chaperone CDC37 co-expressed)
# IKK beta = molecular target: T5, IKK beta (Homo sapiens, UniProt O14920); assay: AlphaScreen kinase assay, IKK beta; details: read-out: IC50, activity toward kinase IKK beta
# T5 sequence (O14920 1-756): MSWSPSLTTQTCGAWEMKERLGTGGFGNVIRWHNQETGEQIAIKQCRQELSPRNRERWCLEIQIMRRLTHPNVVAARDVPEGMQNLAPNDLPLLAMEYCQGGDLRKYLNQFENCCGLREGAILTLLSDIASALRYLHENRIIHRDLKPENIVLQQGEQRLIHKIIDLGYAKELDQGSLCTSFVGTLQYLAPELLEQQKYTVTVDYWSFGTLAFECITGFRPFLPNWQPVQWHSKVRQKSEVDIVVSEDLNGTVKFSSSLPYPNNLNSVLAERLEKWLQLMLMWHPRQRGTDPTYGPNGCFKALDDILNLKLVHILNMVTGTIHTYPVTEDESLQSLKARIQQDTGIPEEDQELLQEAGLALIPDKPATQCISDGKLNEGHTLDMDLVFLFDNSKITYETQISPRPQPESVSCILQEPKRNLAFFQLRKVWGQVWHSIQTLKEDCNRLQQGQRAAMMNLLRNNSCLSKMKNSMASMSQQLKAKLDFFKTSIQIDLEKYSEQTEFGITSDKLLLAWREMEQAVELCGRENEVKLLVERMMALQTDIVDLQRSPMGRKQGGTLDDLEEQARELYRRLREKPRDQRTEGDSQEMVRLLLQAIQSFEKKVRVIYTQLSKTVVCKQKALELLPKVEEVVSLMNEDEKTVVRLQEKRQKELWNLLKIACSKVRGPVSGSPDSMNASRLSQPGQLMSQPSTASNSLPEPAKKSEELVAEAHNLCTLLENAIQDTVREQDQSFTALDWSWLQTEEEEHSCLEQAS
# Gsk3β = Gsk3β (Homo sapiens, UniProt P49841); assay: AlphaScreen kinase assay, Gsk3β; details: read-out: IC50, activity toward kinase Gsk3β
# Method in brief: (§1)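 Biotinylated peptide substrate is phosphorylated by kinase; anti-phosphopeptide antibody on acceptor beads and streptavidin donor beads bring emission when substrate is phosphorylated. Inhibition lowers acceptor signal. Compounds from 20 mM DMSO stock tested as 8-point 1:3 serial dilutions.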
# Zap70 = molecular target: T6, Zap70 (Homo sapiens, UniProt P43403); assay: AlphaScreen kinase assay, Zap70; details: read-out: IC50, activity toward kinase Zap70
# T6 construct: P1868.pFastBac1 ZAP70 D327-G606 HIS, WT; His7 (HHHHHHH) (C); made in house
# T6 sequence (P43403 with tags, fused parts or gaps): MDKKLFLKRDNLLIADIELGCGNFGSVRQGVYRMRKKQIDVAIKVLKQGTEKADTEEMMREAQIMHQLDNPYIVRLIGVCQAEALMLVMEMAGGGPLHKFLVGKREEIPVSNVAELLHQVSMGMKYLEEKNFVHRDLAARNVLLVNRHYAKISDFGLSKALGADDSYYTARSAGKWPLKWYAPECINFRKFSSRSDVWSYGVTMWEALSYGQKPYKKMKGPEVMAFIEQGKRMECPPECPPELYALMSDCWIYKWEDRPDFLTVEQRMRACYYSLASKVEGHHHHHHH
# Method in brief: as §1
# Stk6 = molecular target: T7, Stk6 (Homo sapiens, UniProt O14965); assay: Z'-Lyte FRET kinase assay (Invitrogen), Stk6; details: read-out: IC50, activity toward kinase Stk6
# T7 construct: purchased Invitrogen (Carlsbad, Calif.), screening service
# T7 sequence (O14965 1-403): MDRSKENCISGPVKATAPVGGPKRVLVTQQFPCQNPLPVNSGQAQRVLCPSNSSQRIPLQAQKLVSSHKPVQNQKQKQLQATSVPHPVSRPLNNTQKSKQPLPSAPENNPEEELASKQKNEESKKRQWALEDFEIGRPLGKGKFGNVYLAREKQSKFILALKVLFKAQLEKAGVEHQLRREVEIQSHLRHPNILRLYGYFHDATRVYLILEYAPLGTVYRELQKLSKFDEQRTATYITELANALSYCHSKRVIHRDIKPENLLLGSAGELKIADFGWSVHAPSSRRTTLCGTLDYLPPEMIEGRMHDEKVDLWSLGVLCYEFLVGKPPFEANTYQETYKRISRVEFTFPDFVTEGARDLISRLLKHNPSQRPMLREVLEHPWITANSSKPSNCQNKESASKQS
# Kit = molecular target: T8, Kit (Homo sapiens, UniProt P10721); assay: AlphaScreen kinase assay, Kit; details: read-out: IC50, activity toward kinase Kit
# T8 construct: P1332.N6 BI PTP KIT M552-K948-X COD; His6 (N); made in house; host or cells: E. coli (PTP1B co-expressed)
# IGF1R = IGF1R (Homo sapiens, UniProt P08069); assay: AlphaScreen kinase assay, IGF1R; details: read-out: IC50, activity toward kinase IGF1R
# IGF1R, sequence (P08069 31-1367): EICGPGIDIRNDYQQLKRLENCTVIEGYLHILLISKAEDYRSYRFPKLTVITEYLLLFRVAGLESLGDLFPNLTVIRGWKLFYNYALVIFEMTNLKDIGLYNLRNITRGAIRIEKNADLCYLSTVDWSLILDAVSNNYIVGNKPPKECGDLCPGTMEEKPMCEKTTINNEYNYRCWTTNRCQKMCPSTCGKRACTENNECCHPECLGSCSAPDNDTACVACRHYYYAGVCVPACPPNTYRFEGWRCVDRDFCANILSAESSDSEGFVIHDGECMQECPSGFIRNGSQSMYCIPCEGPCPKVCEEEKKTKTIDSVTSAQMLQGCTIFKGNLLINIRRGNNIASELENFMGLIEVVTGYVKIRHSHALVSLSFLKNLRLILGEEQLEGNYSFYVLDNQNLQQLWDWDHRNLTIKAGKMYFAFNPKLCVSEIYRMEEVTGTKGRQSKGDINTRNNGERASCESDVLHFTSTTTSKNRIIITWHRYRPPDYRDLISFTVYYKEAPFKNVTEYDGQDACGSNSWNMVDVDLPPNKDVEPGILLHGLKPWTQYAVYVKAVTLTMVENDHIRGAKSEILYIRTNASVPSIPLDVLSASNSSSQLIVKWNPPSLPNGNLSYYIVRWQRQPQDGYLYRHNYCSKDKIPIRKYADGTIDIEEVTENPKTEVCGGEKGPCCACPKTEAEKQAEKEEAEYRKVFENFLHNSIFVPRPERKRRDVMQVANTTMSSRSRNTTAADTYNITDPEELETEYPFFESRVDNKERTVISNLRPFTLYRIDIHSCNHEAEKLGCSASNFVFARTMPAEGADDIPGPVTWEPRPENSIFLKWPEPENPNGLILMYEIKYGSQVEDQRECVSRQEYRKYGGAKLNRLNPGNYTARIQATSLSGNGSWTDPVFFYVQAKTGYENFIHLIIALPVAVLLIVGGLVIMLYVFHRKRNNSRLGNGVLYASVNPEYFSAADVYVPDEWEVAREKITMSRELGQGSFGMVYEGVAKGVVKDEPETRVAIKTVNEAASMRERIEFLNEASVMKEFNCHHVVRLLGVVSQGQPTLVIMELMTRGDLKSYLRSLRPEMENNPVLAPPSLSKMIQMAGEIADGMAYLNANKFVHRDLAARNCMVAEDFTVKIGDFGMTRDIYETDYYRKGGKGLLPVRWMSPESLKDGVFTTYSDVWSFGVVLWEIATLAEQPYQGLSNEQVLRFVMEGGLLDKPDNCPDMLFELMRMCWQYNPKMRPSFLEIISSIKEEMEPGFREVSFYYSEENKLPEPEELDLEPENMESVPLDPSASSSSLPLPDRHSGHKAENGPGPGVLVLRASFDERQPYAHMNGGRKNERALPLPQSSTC
# Plk1, sequence (P53350 whole entry): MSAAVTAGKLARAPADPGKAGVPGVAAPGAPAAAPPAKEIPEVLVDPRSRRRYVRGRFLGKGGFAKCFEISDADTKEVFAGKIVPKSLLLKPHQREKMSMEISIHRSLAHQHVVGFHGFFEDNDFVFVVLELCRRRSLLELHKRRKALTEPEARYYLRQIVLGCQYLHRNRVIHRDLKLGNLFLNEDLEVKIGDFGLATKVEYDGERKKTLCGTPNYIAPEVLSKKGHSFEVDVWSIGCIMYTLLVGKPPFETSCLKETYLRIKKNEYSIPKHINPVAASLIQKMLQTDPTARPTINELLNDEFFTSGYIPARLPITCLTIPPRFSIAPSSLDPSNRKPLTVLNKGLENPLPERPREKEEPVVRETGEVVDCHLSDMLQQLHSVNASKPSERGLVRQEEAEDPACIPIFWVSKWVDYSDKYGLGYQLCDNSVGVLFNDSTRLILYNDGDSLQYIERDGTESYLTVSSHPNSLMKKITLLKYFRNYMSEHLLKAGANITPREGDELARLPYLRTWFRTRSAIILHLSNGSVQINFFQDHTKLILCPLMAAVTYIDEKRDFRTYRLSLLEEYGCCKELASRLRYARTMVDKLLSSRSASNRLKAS
# Gsk3β, sequence (P49841 whole entry): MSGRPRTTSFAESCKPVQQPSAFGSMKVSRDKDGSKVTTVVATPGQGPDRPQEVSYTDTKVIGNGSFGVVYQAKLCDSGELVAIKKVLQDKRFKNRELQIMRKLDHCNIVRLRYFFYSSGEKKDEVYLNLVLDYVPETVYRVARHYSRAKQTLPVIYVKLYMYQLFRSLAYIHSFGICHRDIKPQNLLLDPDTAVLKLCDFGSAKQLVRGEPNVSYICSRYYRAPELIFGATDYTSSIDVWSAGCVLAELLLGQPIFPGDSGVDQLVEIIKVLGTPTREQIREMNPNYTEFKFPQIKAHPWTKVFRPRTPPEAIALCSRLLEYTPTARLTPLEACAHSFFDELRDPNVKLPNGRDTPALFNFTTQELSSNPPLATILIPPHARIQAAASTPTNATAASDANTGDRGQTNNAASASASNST
# T3 sequence (P35968 20-1356): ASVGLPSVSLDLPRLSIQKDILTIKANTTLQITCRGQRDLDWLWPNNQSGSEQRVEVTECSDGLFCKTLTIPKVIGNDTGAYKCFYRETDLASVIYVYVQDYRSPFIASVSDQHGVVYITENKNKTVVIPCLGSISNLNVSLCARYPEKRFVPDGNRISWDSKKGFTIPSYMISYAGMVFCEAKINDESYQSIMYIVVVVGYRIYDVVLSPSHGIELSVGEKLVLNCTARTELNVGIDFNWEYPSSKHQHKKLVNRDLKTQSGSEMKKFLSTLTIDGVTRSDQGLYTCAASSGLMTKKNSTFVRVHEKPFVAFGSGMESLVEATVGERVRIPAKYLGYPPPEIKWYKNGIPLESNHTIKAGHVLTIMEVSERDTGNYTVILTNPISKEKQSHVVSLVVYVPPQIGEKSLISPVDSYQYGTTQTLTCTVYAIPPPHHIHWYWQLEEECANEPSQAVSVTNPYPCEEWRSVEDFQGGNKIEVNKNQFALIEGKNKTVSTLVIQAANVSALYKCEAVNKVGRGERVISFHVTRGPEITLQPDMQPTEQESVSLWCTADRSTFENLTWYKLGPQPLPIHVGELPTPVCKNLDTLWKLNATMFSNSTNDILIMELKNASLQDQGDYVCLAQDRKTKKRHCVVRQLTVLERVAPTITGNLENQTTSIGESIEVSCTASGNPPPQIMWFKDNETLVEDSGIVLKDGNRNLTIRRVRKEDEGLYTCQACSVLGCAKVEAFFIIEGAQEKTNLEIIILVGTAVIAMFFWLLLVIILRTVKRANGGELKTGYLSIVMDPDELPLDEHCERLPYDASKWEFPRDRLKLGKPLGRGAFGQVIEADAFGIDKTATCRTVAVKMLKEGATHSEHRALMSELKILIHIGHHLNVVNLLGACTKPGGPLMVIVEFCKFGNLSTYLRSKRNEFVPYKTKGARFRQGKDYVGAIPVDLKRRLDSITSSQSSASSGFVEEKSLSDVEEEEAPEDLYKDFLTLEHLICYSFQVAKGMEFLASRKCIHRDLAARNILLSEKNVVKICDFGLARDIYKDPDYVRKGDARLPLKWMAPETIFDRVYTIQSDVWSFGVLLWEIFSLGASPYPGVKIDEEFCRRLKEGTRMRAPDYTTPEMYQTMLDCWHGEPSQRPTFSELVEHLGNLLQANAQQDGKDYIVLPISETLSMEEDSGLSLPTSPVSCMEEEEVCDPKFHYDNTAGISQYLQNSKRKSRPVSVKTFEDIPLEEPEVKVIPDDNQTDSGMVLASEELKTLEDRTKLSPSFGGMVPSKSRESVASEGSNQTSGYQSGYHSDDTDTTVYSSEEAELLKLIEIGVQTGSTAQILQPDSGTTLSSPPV
# T1 sequence (Q06187 whole entry): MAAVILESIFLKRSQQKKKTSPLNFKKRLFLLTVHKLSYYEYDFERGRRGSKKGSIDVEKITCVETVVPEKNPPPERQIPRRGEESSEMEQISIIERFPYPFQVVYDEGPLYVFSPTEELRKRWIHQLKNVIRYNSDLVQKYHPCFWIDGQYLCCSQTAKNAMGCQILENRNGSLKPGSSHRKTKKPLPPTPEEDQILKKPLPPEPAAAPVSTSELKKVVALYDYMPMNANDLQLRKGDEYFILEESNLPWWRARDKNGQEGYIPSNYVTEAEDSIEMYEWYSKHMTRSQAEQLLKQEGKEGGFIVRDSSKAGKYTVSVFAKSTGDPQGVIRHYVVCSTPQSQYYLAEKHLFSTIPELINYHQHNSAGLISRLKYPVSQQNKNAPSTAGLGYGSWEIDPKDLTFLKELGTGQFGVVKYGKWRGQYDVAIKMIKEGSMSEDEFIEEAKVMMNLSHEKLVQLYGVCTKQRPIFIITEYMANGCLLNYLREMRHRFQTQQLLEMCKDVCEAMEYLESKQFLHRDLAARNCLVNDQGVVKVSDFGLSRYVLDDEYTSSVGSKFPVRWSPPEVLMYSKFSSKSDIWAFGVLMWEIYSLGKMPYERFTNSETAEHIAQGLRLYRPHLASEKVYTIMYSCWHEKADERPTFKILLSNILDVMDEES
# T4 sequence (P15056 with tags, fused parts or gaps V600E): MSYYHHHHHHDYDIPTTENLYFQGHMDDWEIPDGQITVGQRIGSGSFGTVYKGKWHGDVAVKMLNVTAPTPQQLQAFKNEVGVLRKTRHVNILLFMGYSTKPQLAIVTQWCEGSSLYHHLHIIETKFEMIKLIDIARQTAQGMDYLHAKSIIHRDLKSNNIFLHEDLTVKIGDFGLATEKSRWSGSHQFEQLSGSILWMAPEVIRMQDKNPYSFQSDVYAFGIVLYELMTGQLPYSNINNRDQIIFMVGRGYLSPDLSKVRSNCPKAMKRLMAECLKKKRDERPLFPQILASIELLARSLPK
# T8 sequence (P10721 with tags, fused parts or gaps): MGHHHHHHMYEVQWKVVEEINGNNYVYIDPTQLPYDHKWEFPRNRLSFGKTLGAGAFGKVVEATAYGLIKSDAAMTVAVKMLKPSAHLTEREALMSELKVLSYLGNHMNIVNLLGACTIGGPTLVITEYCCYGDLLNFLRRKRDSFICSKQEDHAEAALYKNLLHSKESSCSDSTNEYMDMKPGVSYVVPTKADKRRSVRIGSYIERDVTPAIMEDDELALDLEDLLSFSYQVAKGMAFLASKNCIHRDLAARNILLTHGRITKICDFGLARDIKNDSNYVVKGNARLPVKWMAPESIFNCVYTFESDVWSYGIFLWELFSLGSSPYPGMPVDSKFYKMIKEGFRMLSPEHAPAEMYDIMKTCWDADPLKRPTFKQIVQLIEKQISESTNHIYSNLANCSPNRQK
Structure (SMILES),IC50 (Btk),IC50 (Ret),IC50 (Plk1),IC50 (Kdr),IC50 (B-Raf V600E),IC50 (IKK beta),IC50 (Gsk3β),IC50 (Zap70),IC50 (Stk6),IC50 (Kit),IC50 (IGF1R)
NC(=O)c1ccc(-c2ccnc3[nH]cc(C(=O)c4ccc(Cl)cc4)c23)cc1 [Compound P-0085],≤ 10 µM,≤ 10 µM,≤ 10 µM,≤ 10 µM,≤ 10 µM,≤ 10 µM,≤ 10 µM,,,,
c1cc(-c2noc(C3CC3)n2)c2cc[nH]c2n1 [Compound P-0128],,,≤ 10 µM,≤ 10 µM,,≤ 10 µM,,,≤ 10 µM,,
Nc1cccc(-c2cnc3[nH]ccc3c2)c1 [Compound P-0136],,,,≤ 10 µM,,,,,≤ 10 µM,≤ 10 µM,≤ 10 µM

# The remaining lines, values ahead:
IC50 (Btk),IC50 (Ret),IC50 (Plk1),IC50 (Kdr),IC50 (B-Raf V600E),IC50 (IKK beta),IC50 (Gsk3β),IC50 (Zap70),IC50 (Stk6),IC50 (Kit),IC50 (IGF1R),Structure (SMILES)
,≤ 10 µM,≤ 10 µM,,,,≤ 10 µM,≤ 10 µM,≤ 10 µM,≤ 10 µM,,Clc1ccc(Cc2c[nH]c3nccc(-c4ccsc4)c23)cn1 [Compound P-0123]
≤ 10 µM,≤ 10 µM,≤ 10 µM,≤ 10 µM,≤ 10 µM,≤ 10 µM,≤ 10 µM,,,,,NC(=O)c1cccc(-c2ccnc3[nH]cc(C(=O)c4ccc(Cl)cc4)c23)c1 [Compound P-0135]
